pIC50: −log10 of the molar value. Read-outs that look alike come from different tables or passages of the source.
Columns and labels:
[1] = test system: NMRI mice; assay: Mouse tail suspension test; assay type: in vivo; conditions: s.c., immobility, 30 min after administration
[2] = test system: C57BL/6 mice; assay: Mouse forced swim test; assay type: in vivo; conditions: s.c., immobility, treatment 30 min prior to test
Description: (§1) Antidepressant- and anxiolytic like properties of the compounds were examined in mouse tail suspension test (TS), mouse forced swim test (FS) and mouse neonatal ultrasonic vocalization test (USV).
This test has been validated as test for antidepressant-like activity (Borsini and Meli, Psychopharmacology 1988, 94, 147).
Adult male C57BL/6 mice (body weight 22-24 g Charles River, Sulzfeld, Germany) were housed individually in IVC racks and maintained under a 12:12 h light/dark cycle (lights on at 6:00 b), with food and water ad libitum.
A clear glass beaker (10 cm in diameter, 25 cm high) was filled to a depth of 10 cm with water (25° C.). Mice were placed into the water for 6 min. Immobility during the first and the last 3 min were scored automatically using the Videotrack video tracking system (Viewpoint, France), which allows detection of individual pixel movements. Four animals were tested in parallel. Treatment was given 30 min prior to test (s.c., 10 ml/kg). The water was replaced after each animal.
(§2) Data were analyzed using the non-parametric, unadjusted Wilcoxon-Mann-Whitney rank sum test. Each dose was compared with vehicle.

[3] = test system: neonatal C57BL/6 mice; assay: Mouse neonatal ultrasonic vocalization test; assay type: in vivo; conditions: s.c., postnatal day 3, 30 min after injection
Text: as §1
Anxiolytic compounds typically decrease the vocalizations in rat pups separated from their mother (Olivier et al., Eur. J. Pharmacol. 1998, 358, 117) More recently, this test has also been established in mice (Dirks et al., Pharmacol. Biochem. Behav. 2002, 72, 993).
Seventeen days pregnant C57BL/6 mice were obtained from Charles River (Sulzfeld, Germany). They were housed and maintained at a constant temperature of 22° C., under a 12:12 h reversed light/dark cycle (lights off at 6:00 h), with food and water ad libitum. Two times per day, cages were checked for newborn litters. Litter size was 5-8 pups/litter.
Ultrasonic vocalizatiors (USVs) were recorded in a sound attenuating, ventilated chamber at room temperature, detected at 60 kHz (range 50-70 kHz) by a bat recorder in combination with the UltraVox system (Noldus, The Netherlands). No filter was used in order to be able to record pup clicks.
Distress calls of neonatal mice were measured in neonatal C57BL/6 mice at postnatal day 3 during the early dark phase (between 8:00 and 12:00). Pups were weighed (body weight 2-3 g), followed by subcutaneous injection (10 ml/kg), and placed back into the nest. After 30 min, they were separated from the mother and placed into a beaker underneath the bat detector. The number of calls and the duration of calls were recorded over a period of 5 min.
as §2

[4] = target: T1, cloned human δ opioid receptor (Homo sapiens, UniProt P41143); assay: Radioligand binding, competitive inhibition of [3H]DPDPE
T1 construct: expressed in transfected cells; host or cells: C6 glioma cells (permanently transfected)
T1 sequence (P41143 whole entry): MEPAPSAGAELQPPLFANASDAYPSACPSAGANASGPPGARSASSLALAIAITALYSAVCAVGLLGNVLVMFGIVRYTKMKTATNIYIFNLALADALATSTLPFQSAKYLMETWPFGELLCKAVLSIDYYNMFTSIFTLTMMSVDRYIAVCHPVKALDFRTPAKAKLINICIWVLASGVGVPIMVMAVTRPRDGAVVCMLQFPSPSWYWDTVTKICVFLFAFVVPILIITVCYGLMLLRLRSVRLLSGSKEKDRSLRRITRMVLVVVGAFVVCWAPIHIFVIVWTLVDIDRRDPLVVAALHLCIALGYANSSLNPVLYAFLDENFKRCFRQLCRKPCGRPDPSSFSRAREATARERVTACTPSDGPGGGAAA

[5] = target: cloned human μ opioid receptor (Homo sapiens, UniProt P35372); assay: Radioligand binding, competition with [3H]DAMGO; conditions: Table 8, CHO membranes, read-out: Agonist receptor binding (pIC50) mu (converted)
cloned human μ opioid receptor, sequence (P35372 whole entry): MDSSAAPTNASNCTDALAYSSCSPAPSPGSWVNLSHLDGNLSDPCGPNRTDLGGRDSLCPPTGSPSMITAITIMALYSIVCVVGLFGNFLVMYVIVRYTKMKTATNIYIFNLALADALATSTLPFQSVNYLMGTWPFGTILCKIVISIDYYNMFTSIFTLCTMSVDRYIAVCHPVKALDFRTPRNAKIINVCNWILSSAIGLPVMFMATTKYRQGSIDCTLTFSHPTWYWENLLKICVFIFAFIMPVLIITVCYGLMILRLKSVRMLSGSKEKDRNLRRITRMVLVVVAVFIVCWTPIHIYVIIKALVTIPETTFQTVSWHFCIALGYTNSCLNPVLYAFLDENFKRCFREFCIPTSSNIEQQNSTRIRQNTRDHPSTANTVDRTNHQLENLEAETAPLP

[6] = target: T2, δ opioid receptor (Homo sapiens, UniProt P41143); assay: [35S]GTPγS binding, delta agonism; assay type: biochemical
T2 construct: expressed in transfected cells; host or cells: C6 glioma cells (permanently transfected)
T2 sequence (P41143 whole entry): as the sequence (P41143 whole entry) above
Description: Second messenger signaling was measured on membrane preparations via stimulation of [^35S]GTPγS binding In this functional assay, agonistic and antagonistic properties of the compounds were investigated.
The assay mixtures contained 10 μg of membrane protein. An additional 10 μg/ml saponire was added to the diluted membranes as a detergent to maximize the [^35S]GTPγS penetration through the membranes.
For testing agonistic activity, 175 μl of diluted membranes was pre-incubated in the buffer described above together with 25 μl of buffer and 25 μl of varying concentrations of the compound in a total volume of 225 μl. For antagonistic activities, the 25 μl of the buffer addition was replaced with the reference agonist for stimulating the basal levels. […]
The amount of bound radioactivity on the filter unit was determined after filter drying and scintillant addition (Nicroscint-O; Packard) by liquid scintillation counting.
Basal [^35S]GTPγS binding was measured in absence of compounds. Stimulation by agonist was calculated as the percentage increase above basal levels. The sigmoid agonist concentration response curves for increases in [^35S]GTPγS binding and antagonist inhibition curves for inhibition of the reference agonist-stimulated [^35S]GTPγS binding were analyzed by non-linear regression using the GraphPad Prism program. […]

[7] = target: T2, δ opioid receptor; assay: Signal transport binding, delta antagonism; assay type: biochemical
[8] = Table 7, delta opioid receptor, read-out: pIC50 values for the delta opioid receptor agonist test (converted)

For `CCOC(=O)N1CCC(c2ccccc2)(c2nccn2Cc2ccccc2)CC1` [Compound 1, ethyl 4-phenyl-4-[1-(phenylmethyl)-1H-imidazol-2-yl]-1-piperidinecarboxylate], the “Tail suspension LAD (Lowest Active Dose tested)” value (“Tail suspension LAD” for short) [1] was 30 mg/kg s.c, the “Forced swim (LAD) (Lowest Active Dose tested)” value [2] was 30 mg/kg s.c and the “Ultrasonic vocalization (LAD) (Lowest Active Dose tested)” value (“Ultrasonic vocalization (LAD)” below) [3] was 10 mg/kg s.c.
In the case of `O=C(c1ccccc1)N1CCC(c2ccccc2)(c2nccn2Cc2ccccc2)CC1` [Compound 2], the “Tail suspension LAD” value [1] was 10 mg/kg s.c and the “Ultrasonic vocalization (LAD)” value [3] was 1 mg/kg s.c.
Work on `CCOC(=O)N1CCC(c2ccccc2)(c2nccn2Cc2ccc(C(=O)OC)cc2)CC1` [Compound 3] yielded a melting point of 149.1 °C.
`CCN/C(=N/C#N)N1CCC(c2ccccc2)(c2nccn2Cc2ccccc2)CC1` [Compound 4] showed a pIC50 [4] of 7.30 and a melting point of 84.2 °C.
Compound `COC(=O)c1ccccc1NC(=O)N1CCC(c2ccccc2)(c2nccn2Cc2ccccc2)CC1` [Compound 7] has a pIC50 [4] of 7.70.
`CCOC(=O)N1CCC(c2ccccc2)(c2nccn2Cc2ccc(C(=O)O)cc2)CC1` [Compound 8] showed a melting point of 251.6 °C.
With `O=C(Nc1ccccc1CO)N1CCC(c2ccccc2)(c2nccn2Cc2ccccc2)CC1` [Compound 10] the IC50 [4, 8] was 63.1 nM.
`O=C(O)c1ccccc1NC(=O)N1CCC(c2ccccc2)(c2nccn2Cc2ccccc2)CC1` [Compound 11] showed an IC50 [4, 8] of 15.8 nM.
In the case of `CCOC(=O)c1ccc(C(C)n2ccnc2C2(c3ccccc3)CCN(C(=O)OCC)CC2)cc1` (centres unmarked) [Compound 19], the pIC50 ([4]; Agonist receptor binding (pIC50) delta, Table 8, [3H]DPDPE 2 nM, C6 glioma cell membranes) was 8.20, the IC50 ([5]; [3H]DAMGO 1 nM) was > 1000 nM and the IC50 ([6]; Table 8, [35S]GTPγS binding, membranes, read-out: Signal transport binding (pIC50) delta agonism GTPγS (converted)) was 316 nM. The IC50 ([7]; Table 8, against reference agonist DPDPE, read-out: Signal transport binding (pIC50) delta antag. (converted)) was > 10 µM.
In the case of `CCOC(=O)N1CCC(c2ccccc2)(c2nccn2C(C)c2ccccc2)CC1` (centres unmarked) [Compound 20], the “Tail suspension LAD” value [1] was 30 mg/kg s.c and the “Ultrasonic vocalization (LAD)” value [3] was 30 mg/kg s.c.
`CCOC(=O)N1CCC(c2ccccc2)(c2nccn2Cc2ccc3ccccc3c2)CC1` [Compound 22] gave an IC50 [4, 8] of 50.1 nM.
`O=C(OC1CCCCC1)N1CCC(c2ccccc2)(c2nccn2Cc2ccccc2)CC1` [Compound 28] gave a pIC50 [4] of 7.80.
`O=C(C1CC1)N1CCC(c2ccccc2)(c2nccn2Cc2ccccc2)CC1` [Compound 36] showed a pIC50 [4] of 7.30.
`O=C(c1cc(C(F)(F)F)cc(C(F)(F)F)c1)N1CCC(c2ccccc2)(c2nccn2Cc2ccccc2)CC1` [Compound 42] showed an IC50 [4, 8] of 63.1 nM.
Compound `CCOC(=O)CNC(=O)N1CCC(c2ccccc2)(c2nccn2Cc2ccccc2)CC1` [Compound 48] has a pIC50 [4] of 7.10.
`CCCCNC(=O)N1CCC(c2ccccc2)(c2nccn2Cc2ccccc2)CC1` [Compound 50] gave a pIC50 [4] of 7.60.
With `O=C(NC1CCCCC1)N1CCC(c2ccccc2)(c2nccn2Cc2ccccc2)CC1` [Compound 51] the pIC50 [4] was 7.30.
`COC(=O)c1ccc(Cn2ccnc2C2(c3ccccc3)CCN(C(=O)Nc3ccccc3)CC2)cc1` [Compound 52] showed an IC50 [4, 8] of 20 nM.
`O=C(Nc1ccccc1Cl)N1CCC(c2ccccc2)(c2nccn2Cc2ccccc2)CC1` [Compound 65] showed an IC50 [4, 8] of 31.6 nM.
For `O=C(Nc1ccccc1Br)N1CCC(c2ccccc2)(c2nccn2Cc2ccccc2)CC1` [Compound 66], the pIC50 [4] was 7.50.
`CCOc1ccccc1NC(=O)N1CCC(c2ccccc2)(c2nccn2Cc2ccccc2)CC1` [Compound 70] gave a pIC50 [4] of 7.40.
Work on `O=C(Nc1ccc([N+](=O)[O-])cc1)N1CCC(c2ccccc2)(c2nccn2Cc2ccccc2)CC1` [Compound 71] yielded a pIC50 [4] of 7.30.
`O=C(Nc1ccccc1Oc1ccccc1)N1CCC(c2ccccc2)(c2nccn2Cc2ccccc2)CC1` [Compound 75] gave a pIC50 [4] of 7.40.
With `CSc1ccccc1NC(=O)N1CCC(c2ccccc2)(c2nccn2Cc2ccccc2)CC1` [Compound 76] the pIC50 [4] was 7.40.
Compound `COc1ccc(Cl)cc1NC(=O)N1CCC(c2ccccc2)(c2nccn2Cc2ccccc2)CC1` [Compound 78] has an IC50 [4, 8] of 12.6 nM.
For `O=C(NCc1ccccc1)N1CCC(c2ccccc2)(c2nccn2Cc2ccccc2)CC1` [Compound 80], the pIC50 [4] was 7.10.
In the case of `O=C(Nc1ccc2ccccc2c1)N1CCC(c2ccccc2)(c2nccn2Cc2ccccc2)CC1` [Compound 81], the pIC50 [4] was 7.20.
For `O=C(c1csc(-c2cccnc2)n1)N1CCC(c2ccccc2)(c2nccn2Cc2ccccc2)CC1` [Compound 84], the IC50 [4, 8] was 31.6 nM.
`O=C(Nc1ccccn1)N1CCC(c2ccccc2)(c2nccn2Cc2ccccc2)CC1` [Compound 87] gave a pIC50 [4] of 7.30.
Work on `O=S(=O)(Nc1ccccc1)N1CCC(c2ccccc2)(c2nccn2Cc2ccccc2)CC1` [Compound 98] yielded a pIC50 [4] of 8.20, an IC50 ([5]; [[…] 1 nM) of 2510 nM and a pIC50 [6] of 6.10. The pIC50 [7] was < 5.00.
For `CCN(CC)C(=O)c1ccc(Cn2ccnc2C2(c3ccccc3)CCN(c3nc4ccccc4o3)CC2)cc1` [Compound 99], the pIC50 [4] was 7.30.
`CC(c1ccccc1)n1ccnc1C1(c2ccccc2)CCN(c2nc3ccccc3o2)CC1` (centres unmarked) [Compound 101] gave a pIC50 [4] of 7.80.
For `COC(=O)c1ccc(Cn2ccnc2C2(c3ccccc3)CCN(c3nc4ccccc4s3)CC2)cc1` [Compound 102], the IC50 ([4]; Table 8, [3H]DPDPE 2 nM, C6 glioma cell membranes, read-out: Agonist receptor binding (pIC50) delta (converted)) was 3.16 nM and the IC50 ([5]; [3H]DAMGO 1 nM) was > 1000 nM.
For `c1ccc(Cn2ccnc2C2(c3ccccc3)CCN(c3ncccn3)CC2)cc1` [Compound 103], the pIC50 [4] was 7.70.
`c1ccc(Cn2ccnc2C2(c3ccccc3)CCN(c3nccs3)CC2)cc1` [Compound 105] gave a pIC50 [4] of 7.90.
